This is an account of results in patent publication US10059709B2, “Compounds” (Elanco Tiergesundheit AG, priority 2014, dated 2018).

Holding throughout (assay type): biochemical
The target in experiment [1] is GST-JAK3(811-1124) (Homo sapiens (Human), UniProt P52333). The experiment in a line: Caliper mobility shift kinase assay, JAK3. Conditions: JAK3tide 2 μM, ATP 80 or 18 μM, 60 minutes at 30° C. The text has this:
(§1) Measurement of the Effect on the JAK Enzyme
(§2) All four kinases of the JAK/TYK-kinase family were used as purified recombinant GST-fusion proteins, containing the active kinase domains. GST-JAK1(866-1154), GST-JAK3(811-1124), and GST-TYK2(888-1187) were expressed and purified by affinity chromatography at the EPK biology unit.
(§3) The kinase assays were based on the Caliper mobility shift assay using the LabChip 3000 systems. This technology is similar to capillary electrophoresis and uses charge driven separation of substrate and product in a microfluidic chip.
(§4) All kinase reactions were performed in 384 well microtiter plates in a total reaction volume of
18 μI. The assay plates were prepared with 0.1 μI per well of test compound in the appropriate test concentration, as described under the section “preparation of compound dilutions”. The reactions were started by combining 9 μI of substrate mix (consisting of peptide and ATP) with 9 μI of kinase dilution. The reactions were incubated for 60 minutes at 30° C. and stopped by adding 70 μI of stop buffer (100 mM Hepes, 5% DMSO, 0.1% Coating reagent, 10 mM EDTA, 0.015% Brij 35).
Fluorescently labeled synthetic peptides were used as substrates in all reactions. A peptide derived from the sequence of IRS-1 (IRS-1 peptide, FITC-Ahx-[…]-NH2) was used for JAK1 and TYK2 and a peptide named JAK3tide (FITC-[…]-NH2) for JAK3. Specific assay conditions are described in Table 4:
(§5) The terminated reactions were transferred to the Caliper LabChip 3000 reader and the turnover of each reaction was measured by determining the substrate/product ratio.
(§6) Preparation of Compound Dilutions
(§7) Test compounds were dissolved in DMSO (10 mM) and transferred into 1.4 mL flatbottom or V-shaped Matrix tubes carrying a unique 2D matrix chip by individual compound hubs. The numbers of these chips were distinctively linked to the individual compound identification numbers. The stock solutions were stored at −20° C. if not used immediately. For the test procedure the vials were defrosted and identified by a scanner whereby a working sheet was generated that guided the subsequent working steps. Compound dilutions were made in 96 well plates. This format enabled the assay of maximally 40 individual test compounds at 8 concentrations (single points) including 4 reference compounds. The dilution protocol included the production of pre-dilution plates, master plates and assay plates:
(§8) Pre-dilution plates: 96 polypropylene well plates were used as pre-dilution plates. A total of 4 pre-dilution plates were prepared including 10 test compounds each on the plate positions A1-A10, one standard compound at A11 and one DMSO control at A12. All dilution steps were done on a HamiltonSTAR robot.
(§9) Master plates: 100 μI of individual compound dilutions including standard compound and controls of the 4 “pre-dilution plates” were transferred into a 384 “master plate” including the following concentrations 1′820, 564, 182, 54.6, 18.2, 5.46, 1.82 and 0.546 μM, respectively in 90% of DMSO.
Assay plates: Identical assay plates were then prepared by pipetting 100 nL of compound dilutions of the master plates into 384-well “assay plates”. In the following the compounds were mixed with 9 μI of assays components plus 9 μI enzyme corresponding to a 1:181 dilution steps enabling the final concentration of 10, 3.0, 1.0, 0.3, 0.1, 0.03, 0.01 and 0.003 μM, respectively. The preparation of the master plates were handled by the Matrix PlateMate Plus robot and replication of assay plates by the HummingBird robot.

Experiment [2] deals with GST-JAK1(866-1154) (Homo sapiens (Human), UniProt P23458). The experiment in a line: Caliper mobility shift kinase assay, JAK1. To be noted: IRS-1 peptide 5 μM, ATP 40 μM, 60 minutes at 30° C.
GST-JAK1(866-1154), sequence (P23458 866-1154): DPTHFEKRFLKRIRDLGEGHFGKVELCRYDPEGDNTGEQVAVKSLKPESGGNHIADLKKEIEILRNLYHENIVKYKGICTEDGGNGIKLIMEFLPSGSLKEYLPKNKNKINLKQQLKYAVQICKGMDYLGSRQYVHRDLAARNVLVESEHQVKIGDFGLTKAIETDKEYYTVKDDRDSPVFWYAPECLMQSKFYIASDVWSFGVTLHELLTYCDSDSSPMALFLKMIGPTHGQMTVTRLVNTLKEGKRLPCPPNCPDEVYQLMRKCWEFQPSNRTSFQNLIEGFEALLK
From the text: as §1, §2, §3, §4
(§10) 18 μI. […] The reactions were started by combining 9 μI of substrate mix (consisting of peptide and ATP) with 9 μI of kinase dilution. The reactions were incubated for 60 minutes at 30° C. and stopped by adding 70 μI of stop buffer (100 mM Hepes, 5% DMSO, 0.1% Coating reagent, 10 mM EDTA, 0.015% Brij 35).
(§11) Fluorescently labeled synthetic peptides were used as substrates in all reactions. […] Specific assay conditions are described in Table 4:
as §5, §6, §7, §8, §9
(§12) Assay plates: Identical assay plates were then prepared by pipetting 100 nL of compound dilutions of the master plates into 384-well “assay plates”. […] The preparation of the master plates were handled by the Matrix PlateMate Plus robot and replication of assay plates by the HummingBird robot.

Experiment [3] addresses GST-TYK2(888-1187) (Homo sapiens (Human), UniProt P29597). Description: Caliper mobility shift kinase assay, TYK2. Conditions: IRS-1 peptide 5 μM, ATP 30 μM, 60 minutes at 30° C.
From the text: as §1, §2, §3, §4, §10, §11, §5, §6, §7, §8, §9, §12

Each structure is given as a SMILES string. pIC50: −log10 of the molar value. A value given as a limit tells only on which side of the number the result lay.

GST-TYK2(888-1187), sequence (P29597 888-1187): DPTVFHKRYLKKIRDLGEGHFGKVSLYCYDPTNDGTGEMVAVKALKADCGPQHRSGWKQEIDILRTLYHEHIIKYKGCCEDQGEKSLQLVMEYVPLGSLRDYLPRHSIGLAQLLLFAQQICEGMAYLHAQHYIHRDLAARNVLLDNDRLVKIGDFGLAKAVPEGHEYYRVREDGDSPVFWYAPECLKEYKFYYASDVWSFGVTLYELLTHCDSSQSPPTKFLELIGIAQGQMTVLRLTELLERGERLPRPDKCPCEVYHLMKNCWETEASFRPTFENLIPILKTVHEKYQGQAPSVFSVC
GST-JAK3(811-1124), sequence (P52333 811-1124): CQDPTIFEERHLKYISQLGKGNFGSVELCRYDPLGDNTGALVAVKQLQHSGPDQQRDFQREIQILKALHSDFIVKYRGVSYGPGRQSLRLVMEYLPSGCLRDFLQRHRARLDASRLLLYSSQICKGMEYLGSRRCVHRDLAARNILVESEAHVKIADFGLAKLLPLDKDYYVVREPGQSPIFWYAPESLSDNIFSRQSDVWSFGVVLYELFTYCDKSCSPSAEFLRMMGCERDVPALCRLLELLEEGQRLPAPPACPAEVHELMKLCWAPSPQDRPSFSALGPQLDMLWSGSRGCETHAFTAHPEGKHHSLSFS

What is called pIC50 is the negative decadic logarithm of the IC50, by convention in mol/L. With `CNS(=O)(=O)C[C@H]1CC[C@H](Nc2ccnc(N)n2)CC1` [compound 11], the pIC50 in experiment [1], in experiment [2] and in experiment [3] was less than 5.00 each time.
`CNS(=O)(=O)C[C@H]1CC[C@H](N(C)c2ncnn3cccc23)CC1` [compound 28]: the figures for the pIC50 in experiment [1], in experiment [2] and in experiment [3] were less than 5.00, 6.26 and 5.49, respectively.
On to `CNS(=O)(=O)C[C@H]1CC[C@H](N(C)c2c([N+](=O)[O-])cnc3[nH]ccc23)CC1` [compound 18], for which the negative logarithm of the IC50 (pIC50) was 5.92 in experiment [1] and 6.41 in experiment [3].
As to `CNS(=O)(=O)C[C@H]1CC[C@H](Oc2ncnc3sccc23)CC1` [compound 19], the pIC50 in experiment [1], in experiment [2] and in experiment [3] was less than 5.00 in each case.
In the case of `CNS(=O)(=O)C[C@H]1CC[C@H](Nc2nc(N)ncc2C)CC1` [compound 12], the pIC50 in experiment [1], in experiment [2] and in experiment [3] was less than 5.00 each time.
As to `CNS(=O)(=O)C[C@H]1CC[C@H](Nc2ncnc3sccc23)CC1` [compound 8], the pIC50 in experiment [1], in experiment [2] and in experiment [3] was less than 5.00 in each case.
In the case of `CNS(=O)(=O)C[C@H]1CC[C@H](Nc2nc(N)ncc2-c2ccccc2)CC1` [compound 23], the negative logarithm of the IC50 (pIC50) in experiment [1], in experiment [2] and in experiment [3] was less than 5.00 each time.
For `CNS(=O)(=O)C[C@H]1CC[C@H](N(C)c2cc(Cl)nc(N)n2)CC1` [compound 10], the negative logarithm of the IC50 (pIC50) in experiment [1], in experiment [2] and in experiment [3] was less than 5.00 throughout.
Regarding `CNS(=O)(=O)C[C@H]1CC[C@H](Oc2c([N+](=O)[O-])cnc3[nH]ccc23)CC1` [compound 25, N-methyl-1-[trans-4-[(5-nitro-1H-pyrrolo[2,3-b]pyridin-4-yl)oxy]cyclohexyl]methanesulfonamide], the pIC50 was 5.44 in experiment [1] and 7.15 in experiment [2].
Taken in the same sequence, the figures for `CNS(=O)(=O)C[C@H]1CC[C@H](Nc2c(C#N)cnn3cccc23)CC1` [compound 27] were less than 5.00 and 5.74.
As to `CNS(=O)(=O)C[C@H]1CC[C@H](N(C)c2nc(N)ncc2Br)CC1` [compound 7], the negative-log IC50 (pIC50) in experiment [1], in experiment [2] and in experiment [3] was less than 5.00 in each case.
Consider `CNS(=O)(=O)C[C@H]1CC[C@H](N(C)c2c(C#N)cnc3[nH]ccc23)CC1` [compound 26, 1-[trans-4-[(5-cyano-1H-pyrrolo[2,3-b]pyridin-4-yl)-methyl-amino]cyclohexyl]-N-methyl-methanesulfonamide], for which the negative logarithm of the IC50 (pIC50) was 5.52 in experiment [1], 7.47 in experiment [2] and 6.08 in experiment [3].
Taken in the same sequence, the figures for `CNS(=O)(=O)C[C@H]1CC[C@H](N(C)c2ncnc3[nH]c(-c4ccccc4)nc23)CC1` [compound 4] were less than 5.00, less than 5.00 and less than 5.00.
Taken in the same sequence, the figures for `CNS(=O)(=O)C[C@H]1CC[C@H](N(C)c2nc(N)ncc2-c2ccccc2)CC1` [compound 21] were less than 5.00, less than 5.00 and less than 5.00.
In the same order, the values of `CNS(=O)(=O)C[C@H]1CC[C@H](N(C)c2c(C#N)cnn3cccc23)CC1` [compound 24] are less than 5.00, 6.03 and 5.07.
As to `CNS(=O)(=O)C[C@H]1CC[C@H](N(C)c2ncnc3[nH]c(Cc4ccccc4)nc23)CC1` [compound 5], the pIC50 in experiment [1], in experiment [2] and in experiment [3] was less than 5.00 throughout.
As to `CNS(=O)(=O)C[C@H]1CC[C@H](N(C)c2ccnc(N)n2)CC1` [compound 16], the negative logarithm of the IC50 (pIC50) in experiment [1], in experiment [2] and in experiment [3] was less than 5.00 in each case.
Take `CNS(=O)(=O)C[C@H]1CC[C@H](N(C)c2ncnc3sccc23)CC1` [compound 9]: the negative logarithm of the IC50 (pIC50) in experiment [1], in experiment [2] and in experiment [3] was less than 5.00 throughout.
In the case of `CNS(=O)(=O)C[C@H]1CC[C@H](N(C)c2ncnc3[nH]c(C)nc23)CC1` [compound 1], the negative-log IC50 (pIC50) in experiment [1] is 5.10.
Take `CNS(=O)(=O)C[C@H]1CC[C@H](N(C)c2ncnc3[nH]cnc23)CC1` [compound 2, N-methyl-1-[trans-4-[methyl(9H-purin-6-yl)amino]cyclohexyl]methanesulfonamide]: the figures for the negative logarithm of the IC50 (pIC50) in experiment [1], in experiment [2] and in experiment [3] were 5.72, 6.24 and 5.34, respectively.
Taken in the same sequence, the figures for `CNS(=O)(=O)C[C@H]1CC[C@H](Nc2c(C#N)cnc3sccc23)CC1` [compound 14] were less than 5.00, less than 5.00 and less than 5.00.
As for `CNS(=O)(=O)C[C@H]1CC[C@H](Oc2c(C#N)cnc3sccc23)CC1` [compound 20], the pIC50 in experiment [1], in experiment [2] and in experiment [3] was less than 5.00 throughout.
On to `CNS(=O)(=O)C[C@H]1CC[C@H](Nc2nc(N)ncc2Br)CC1` [compound 13], for which the pIC50 in experiment [1] is less than 5.00; in experiment [3] it was 5.22.
Regarding `CNS(=O)(=O)C[C@H]1CC[C@H](N(C)c2c(C#N)cnc3sccc23)CC1` [compound 17], the pIC50 in experiment [1], in experiment [2] and in experiment [3] was less than 5.00 each time.
`CNS(=O)(=O)C[C@H]1CC[C@H](Nc2ncnn3cccc23)CC1` [compound 15]: the pIC50 in experiment [1], in experiment [2] and in experiment [3] was less than 5.00 throughout.
As for `CNS(=O)(=O)C[C@H]1CC[C@H](Oc2ncnn3cccc23)CC1` [compound 6], the negative-log IC50 (pIC50) in experiment [1], in experiment [2] and in experiment [3] was less than 5.00 in each case.
`CNS(=O)(=O)C[C@H]1CC[C@H](n2cnc3cnc4[nH]ccc4c32)CC1` [compound 22, 1-[trans-4-(imidazo[4,5-d]pyrrolo[2,3-b]pyridin-1(6H)-yl)cyclohexyl]-N-methylmethanesulfonamide]: the results for the negative-log IC50 (pIC50) in experiment [1], in experiment [2] and in experiment [3] were 6.59, 8.00 and 6.89, respectively.
Turning to `CNS(=O)(=O)C[C@H]1CC[C@H](N(C)c2ncnc3[nH]ncc23)CC1` [compound 3], the negative-log IC50 (pIC50) in experiment [1], in experiment [2] and in experiment [3] was less than 5.00 in each case.
